Measured values reported in ChEMBL document CHEMBL1201862, “PubChem BioAssay data set” (2004).
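How tested: cells in 96-well plates exposed to compound for 48 hours at five concentrations. GI50 = concentration required for 50% inhibition of growth.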 Active and inactive are the calls of the source. Rule as the data show it: active = GI50 up to about 1.1 µM and inactive = higher.

Assays:
Experiment in all cases: inhibition of tumour cell growth, NCI panel, 48 h
[1] = tested on: A549
[2] = tested on: COLO 205
[3] = tested on: HCC 2998
[4] = tested on: HT-29
[5] = tested on: IGROV-1
[6] = tested on: K562
[7] = tested on: M19-MEL
[8] = tested on: NCI/ADR-RES
[9] = tested on: OVCAR-5
[10] = tested on: RPMI-8226
[11] = tested on: RXF 393
[12] = tested on: SK-MEL-2
[13] = tested on: SW-620
[14] = tested on: U-251
[15] = tested on: UACC-62
[16] = tested on: TK-10
[17] = tested on: ACHN
[18] = tested on: DU-145
[19] = tested on: MDA-N
[20] = tested on: T47D

| SMILES | GI50 [1] | GI50 [2] | GI50 [3] | GI50 [4] | GI50 [5] | GI50 [6] | GI50 [7] | GI50 [8] | GI50 [9] | GI50 [10] | GI50 [11] | GI50 [12] | GI50 [13] | GI50 [14] | GI50 [15] | GI50 [16] | GI50 [17] | GI50 [18] | GI50 [19] | GI50 [20] |
| --- | --- | --- | --- | --- | --- | --- | --- | --- | --- | --- | --- | --- | --- | --- | --- | --- | --- | --- | --- | --- |
| COc1cc(/N=N\c2ccc(OC)c(S(=O)(=O)O)c2)c(C)cc1/N=N\c1ccc(/C=C/c2ccc(/N=[N+](/[O-])c3ccc(/C=C/c4ccc(/N=N/c5cc(C)c(/N=N\c6ccc(OC)c(S(=O)(=O)O)c6)cc5OC)cc4S(=O)(=O)O)c(S(=O)(=O)O)c3)cc2S(=O)(=O)O)c(S(=O)(=O)O)c1 | > 100 µM (inactive) | > 100 µM (inactive) | > 100 µM (inactive) | > 100 µM (inactive) | > 100 µM (inactive) | > 100 µM (inactive) | > 100 µM (inactive) | > 100 µM (inactive) | > 100 µM (inactive) | > 100 µM (inactive) | > 100 µM (inactive) | > 100 µM (inactive) | > 100 µM (inactive) | > 100 µM (inactive) | > 100 µM (inactive) | – | – | – | – | – |
| NC(=O)c1ccc([N+](=O)[O-])cc1 | > 100 µM (inactive) | > 100 µM (inactive) | > 100 µM (inactive) | > 100 µM (inactive) | > 100 µM (inactive) | > 100 µM (inactive) | > 100 µM (inactive) | – | – | > 100 µM (inactive) | > 100 µM (inactive) | > 100 µM (inactive) | > 100 µM (inactive) | > 100 µM (inactive) | > 100 µM (inactive) | > 100 µM (inactive) | – | – | – | – |
| COc1cccc(N2C(=O)[C@H]3CC(C)c4c([nH]c5ccccc45)[C@H]3C2=O)c1 (some centres not stated) | 41.3 µM (inactive) | 36.1 µM (inactive) | > 100 µM (inactive) | 36.1 µM (inactive) | > 100 µM (inactive) | 46 µM (inactive) | 86.1 µM (inactive) | – | – | 38.9 µM (inactive) | 13.9 µM (inactive) | 27.5 µM (inactive) | > 10 µM (inactive) | 38.5 µM (inactive) | 39.4 µM (inactive) | 55.7 µM (inactive) | – | – | – | – |
| COCCN1C2=CCCCC2=Nc2c(N)nc(N)nc21 | > 100 µM (inactive) | > 100 µM (inactive) | > 100 µM (inactive) | > 100 µM (inactive) | > 100 µM (inactive) | > 100 µM (inactive) | 24.3 µM (inactive) | – | > 100 µM (inactive) | > 100 µM (inactive) | > 100 µM (inactive) | > 100 µM (inactive) | – | > 100 µM (inactive) | > 100 µM (inactive) | > 100 µM (inactive) | > 100 µM (inactive) | – | – | – |
| COc1cc2c(c(OC)c1OC)-c1cccc(=O)cc1C(NC(C)=O)CC2 (configuration not stated) | 0.317 µM (active) | 0.054 µM (active) | 0.075 µM (active) | 0.0721 µM (active) | 0.166 µM (active) | 0.0335 µM (active) | 0.605 µM (active) | – | 7.5 µM (inactive) | 0.0267 µM (active) | 0.0543 µM (active) | 0.0698 µM (active) | 0.0408 µM (active) | 0.0771 µM (active) | 0.0474 µM (active) | > 28.2 µM (inactive) | 0.953 µM (active) | 0.0624 µM (active) | < 0.01 µM (active) | > 100 µM (inactive) |
| COc1cccc2c1C(=O)c1c(O)c3c(c(O)c1C2=O)C[C@@](O)(C(C)=O)C[C@@H]3OC1CC(O)C(O)C(C)O1 (some centres not stated) | 0.465 µM (active) | 2.05 µM (inactive) | 0.918 µM (active) | 1.41 µM (inactive) | 3.05 µM (inactive) | 0.925 µM (active) | 1.6 µM (inactive) | 0.36 µM (active) | 1.04 µM (active) | 0.485 µM (active) | 1.17 µM (inactive) | 4.81 µM (inactive) | 0.536 µM (active) | 0.359 µM (active) | 1.04 µM (active) | 5.74 µM (inactive) | 0.543 µM (active) | 1.62 µM (inactive) | 8.71 µM (inactive) | 2.82 µM (inactive) |
